Assay results taken from patent publication US20250032465A1, “METHODS OF TREATING CNS DISORDERS” (HANGZHOU HIGHLIGHTLL PHARMACEUTICAL CO., LTD, priority 2021, published 2025).

How the values were obtained:
JAK1 [1] = target: T1, JAK1 (Homo sapiens, UniProt P23458); assay: JAK1 biochemical test (33P-ATP filter binding, Reaction Biology); conditions: read-out: Inhibition of JAK1 (IC50)
T1 construct: purchased Reaction Biology Corp, Malvern, PA (contract testing)
Protocol: (§1) The tests were conducted by Reaction Biology Corp, Malvern, PA (Anastassiadis et al. Nat Biotechnol. 2011; 29(11):1039-45). The step is briefly described as follows, using the basic reaction buffer: 20 mM Hepes (pH 7.5), 10 mM MgCl2, 1 mM EGTA, 0.02% Brij35, 0.02 mg/ml BSA, 0.1 mM Na3VO4, 2 mM DTT and 1% DMSO. The required cofactor was added to each kinase reaction respectively. Each reaction was performed according to the following reaction steps: 1) Preparing the designated substrate in the newly prepared basic reaction buffer; 2) Transferring the required cofactor to the above matrix solution; 3) Transferring the designated kinase to the substrate solution and mixing well slightly; 4) Transferring a compound of Formula (I) in DMSO to the kinase reaction mixture with Acoustic technique (Echo550; nanoliter range), culturing for 20 minutes at room temperature; 5) Introducing ^33P-ATP (specific activity: 10 μCi/μl) to the reaction mixture to trigger a reaction; 6) Culturing at room temperature and conducting a kinase reaction for 2 hours; 7) Plotting the reaction on P81 ion exchange paper; and 8) Testing the kinase activity with a filter binding assay. The results shown in Table 1 indicate that compounds of Formulae (I)-(III) are potent and selective TYK2/JAK1 inhibitors.

JAK1 [2] = target: T1, JAK1; assay: JAK1 cellular ELISA assay using PBMC cells (IL-6 stimulated STAT3 phosphorylation); type: cell-based; conditions: IL-6 100 ng/ml, 25 min
Protocol: This testing was performed to test cellular JAK1 activity using the IL-6 stimulated STAT3 phosphorylation assay in PBMC cells. The testing was performed according to the following procedure: 1) Plate PBMC cells to 96-well plate at density of ˜300,000 cell/well; 2) Add different concentrations of test article to wells, maintain in incubator at 37° C. and 5% CO2 for 1 hour; 3) Add IL-6 (final concentration: 100 ng/ml) to stimulate for 25 min in the above incubator; 4) After stimulation, transfer the suspension to 1.5 mL tube, centrifuge at 200 g for 5 min, collect cells, add 100 μL 1× lysate, lyse on ice for 1 hour; 5) Centrifuge at 4° C. and 12000 rpm for 10 min, take the supernatant and analyze according to instructions of the ELISA kit. In this assay, compounds of Formulae (II) and (III) had IC50<300 nM.

TYK2 = target: T2, TYK2 (Homo sapiens, UniProt P29597); assay: TYK2 biochemical test (33P-ATP filter binding, Reaction Biology); conditions: read-out: Inhibition of TYK2 (IC50)
T2 construct: purchased Reaction Biology Corp, Malvern, PA (contract testing)
Protocol: as §1

T1 sequence (P23458 whole entry): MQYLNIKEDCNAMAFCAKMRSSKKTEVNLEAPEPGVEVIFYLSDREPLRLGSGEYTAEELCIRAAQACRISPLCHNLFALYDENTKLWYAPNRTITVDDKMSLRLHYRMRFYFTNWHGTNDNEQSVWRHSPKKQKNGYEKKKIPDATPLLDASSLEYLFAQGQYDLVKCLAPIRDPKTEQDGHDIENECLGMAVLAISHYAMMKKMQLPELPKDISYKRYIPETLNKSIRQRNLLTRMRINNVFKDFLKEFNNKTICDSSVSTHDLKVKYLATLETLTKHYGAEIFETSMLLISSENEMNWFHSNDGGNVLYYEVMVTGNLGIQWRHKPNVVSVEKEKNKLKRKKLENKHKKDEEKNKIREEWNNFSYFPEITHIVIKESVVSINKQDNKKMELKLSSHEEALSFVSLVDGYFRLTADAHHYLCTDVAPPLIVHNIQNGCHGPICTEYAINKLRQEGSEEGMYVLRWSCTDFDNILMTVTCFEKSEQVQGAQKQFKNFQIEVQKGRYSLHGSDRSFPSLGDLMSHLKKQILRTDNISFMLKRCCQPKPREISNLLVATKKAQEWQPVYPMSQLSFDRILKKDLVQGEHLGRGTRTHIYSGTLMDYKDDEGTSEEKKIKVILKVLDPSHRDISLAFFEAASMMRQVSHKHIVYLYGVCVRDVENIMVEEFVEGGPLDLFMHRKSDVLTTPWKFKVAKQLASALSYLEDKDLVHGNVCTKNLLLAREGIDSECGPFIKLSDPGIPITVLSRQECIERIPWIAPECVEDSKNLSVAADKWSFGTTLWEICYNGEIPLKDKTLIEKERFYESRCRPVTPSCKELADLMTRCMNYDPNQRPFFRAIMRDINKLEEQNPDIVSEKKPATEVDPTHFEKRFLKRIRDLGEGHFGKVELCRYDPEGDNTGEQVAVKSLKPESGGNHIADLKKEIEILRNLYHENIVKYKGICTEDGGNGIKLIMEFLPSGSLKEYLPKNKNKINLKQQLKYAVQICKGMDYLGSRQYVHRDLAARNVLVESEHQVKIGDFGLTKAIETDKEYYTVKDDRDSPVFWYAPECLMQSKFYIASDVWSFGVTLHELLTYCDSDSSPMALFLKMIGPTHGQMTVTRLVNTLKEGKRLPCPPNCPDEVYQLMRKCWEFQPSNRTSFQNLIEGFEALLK
T2 sequence (P29597 whole entry): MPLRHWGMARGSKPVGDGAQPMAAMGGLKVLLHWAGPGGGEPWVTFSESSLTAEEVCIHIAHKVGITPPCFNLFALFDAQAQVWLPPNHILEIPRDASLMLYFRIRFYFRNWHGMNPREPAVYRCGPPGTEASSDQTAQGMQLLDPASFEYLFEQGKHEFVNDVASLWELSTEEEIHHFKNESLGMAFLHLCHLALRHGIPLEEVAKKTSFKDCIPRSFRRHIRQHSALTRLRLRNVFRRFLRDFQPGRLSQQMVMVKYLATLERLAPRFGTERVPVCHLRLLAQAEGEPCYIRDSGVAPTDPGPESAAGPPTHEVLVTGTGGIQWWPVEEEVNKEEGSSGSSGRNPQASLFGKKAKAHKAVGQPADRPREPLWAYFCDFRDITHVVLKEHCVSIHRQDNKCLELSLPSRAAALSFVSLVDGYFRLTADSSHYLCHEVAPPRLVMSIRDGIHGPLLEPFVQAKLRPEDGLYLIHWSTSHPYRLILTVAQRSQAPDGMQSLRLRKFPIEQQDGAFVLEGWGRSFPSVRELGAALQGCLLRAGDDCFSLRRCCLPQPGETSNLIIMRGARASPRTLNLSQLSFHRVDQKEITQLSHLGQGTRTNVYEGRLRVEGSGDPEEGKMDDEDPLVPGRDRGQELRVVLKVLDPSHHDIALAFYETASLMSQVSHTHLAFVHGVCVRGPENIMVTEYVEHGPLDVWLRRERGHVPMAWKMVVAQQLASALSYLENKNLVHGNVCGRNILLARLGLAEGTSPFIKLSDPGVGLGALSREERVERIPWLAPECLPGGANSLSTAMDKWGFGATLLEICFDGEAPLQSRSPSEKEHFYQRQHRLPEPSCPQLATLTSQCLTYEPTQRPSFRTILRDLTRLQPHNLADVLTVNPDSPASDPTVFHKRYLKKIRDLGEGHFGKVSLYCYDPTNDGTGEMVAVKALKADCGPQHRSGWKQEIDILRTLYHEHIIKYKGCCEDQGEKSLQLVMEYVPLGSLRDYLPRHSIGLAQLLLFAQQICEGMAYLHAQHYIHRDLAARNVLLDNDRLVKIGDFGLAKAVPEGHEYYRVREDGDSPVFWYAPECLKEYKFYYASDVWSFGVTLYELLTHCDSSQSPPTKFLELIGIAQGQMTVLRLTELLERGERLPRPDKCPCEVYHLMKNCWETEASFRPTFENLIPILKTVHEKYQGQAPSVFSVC

## Cc1nc2cnc3ccoc3c2n1[C@H]1CC[C@H](CC#N)OC1 [Formula (II)]
JAK1 [1]
  IC50: < 10 nM
JAK1 [2]
  IC50: < 300 nM
TYK2
  IC50: < 10 nM
